From patent US20080206231A1, “Compositions and Methods for Treating Disease” (OREGON HEALTH AND SCIENCE UNIVERSITY, priority 2004, published 2008)

What was measured:
insulin signaling = test: EGFR inhibitor study: insulin signaling (ERK and Akt/PKB activation) in control MCF-7 cells; assay type: cell-based, human; conditions: inhibitor 5 minutes prior to 10 nM insulin, FIG. 5
Protocol: (§1) Control MCF-7 cells were serum-starved overnight and treated with the EGFR kinase inhibitor AG1478 (Sigma) or vehicle (DMSO) for 5 minutes prior to the addition of 14 nM EGF or 10 nM insulin (Sigma). After growth factor treatment, cell lysates were prepared and analyzed for ERK and Akt/PKB activation as described above. The 24-hour treatment was done in regular growth medium.

insulin receptor = test: EGFR inhibitor study: insulin receptor level in MCF-7 cells; assay type: cell-based, human; conditions: 24-hour treatment in regular growth medium, FIG. 6
Protocol: as §1

MAPK kinase (MEK) = conditions: Harmon et al., 2004; cited from earlier work
insulin receptor (IR) [1] = target: T1, insulin receptor (IR) (Homo sapiens, UniProt P06213); test: Herstatin cell binding ELISA on IRA-3T3 cells; design: expressed in transfected cells; host or cells: NIH-3T3 (IRA-3T3); conditions: 3T3 cells transfected with human IR cDNA (IRA-3T3), purified Herstatin from S2 insect cells, 2 hrs on ice
Protocol: (§2) ELISA. Monolayer cultures of ˜2×10^6 cells were plated in 6-well tissue culture plates, and were incubated with purified Herstatin for 2 hours at 4° C. in serum-free DMEM. Cells were washed with Phosphate Buffered Saline (PBS) and extracted in 50 mM Tris·HCl, pH 7.0, 1.0% NP-40. Herstatin bound to cells were quantified using a sandwich Herstatin ELISA per manufacturer's instructions (Upstate Biotechnology, Lake Placid, N.Y.).
(§3) The dissociation constant (KD) and maximal binding (Bmax) of Herstatin were determined by nonlinear regression analysis of the plot of pmol of bound versus nM of Herstatin added. Statistical comparisons between different binding curves were performed by extra sums-of-squares F-test nonlinear regression coefficients. All tests were performed (α=0.05) using GraphPad™ Prism 4™ software (GraphPad™ Software, 1994-2003).
(§4) Results. The interaction between Herstatin and IR was investigated. […] Increasing concentrations of Herstatin, expressed and purified from stably-transfected S2 insect cells, were added to 3T3 parental cells (filled triangles; “NIH-3T3”) or 3T3 cells transfected with a human IR cDNA (filled squares; “IRA-3T3”) as previously described (Shamieh et al., FEBS Letters, 568:163-166, 2004). After incubation for 2 hrs on ice, the cells were washed twice with PBS, and the bound Herstatin was quantified using a Herstatin ELISA (Upstate). […]

3T3 parental cells = test: Herstatin cell binding ELISA on parental cells; conditions: NIH-3T3 parental cells, 2 hrs on ice
Protocol: as §2, §3, §4

insulin receptor (IR) [2] = target: T1, insulin receptor (IR); test: IR expression and activation, Western immunoblot in MCF-7 cells; assay type: cell-based; design: whole-cell lysates were prepared at the indicated times and processed directly for Western immunoblots with anti-insulin receptor (IR); endogenous in cells; host or cells: MCF-7 (control and Herstatin-expressing clones)
Protocol: (§5) Western blot analysis, and antibodies. For Western blot analyses, whole-cell lysates or immunoprecipitated proteins were resolved by SDS-PAGE and transferred onto nitrocellulose membranes (BioRad, Hercules, Calif.). Blots were blocked in 5% milk and incubated with primary antibody overnight at 4° C. The antibodies included anti-insulin receptor (IR; against the β subunit), anti-IGF-IR, anti-IRS-1, anti-IRS-2, anti-phosphotyrosine, anti-phospho-Akt, anti-Akt, anti-phospho-ERK, anti-ERK, and anti-Shc antibodies (Santa Cruz Biotechnology, Transduction Laboratories, Cell Signaling Technologies, Upstate Laboratories, or Biosource). After washing, the blots were incubated with secondary antibody conjugated to HRP for 30 min (BioRad, Hercules, Calif.). The membranes were developed with SuperSignal™ West Dura (Pierce, Rockford, Ill.) and exposed to x-ray film.
Methods. Cell lines, expression vectors, protein purification, pull down assays, antibodies, Western blot analysis and ELISA assays were as described under EXAMPLE I, herein above. Insulin was added either to MCF-7 breast carcinoma cells, or to an MCF-7 cell line stably transfected with a Herstatin expression vector, to determine whether Herstatin expression affects IR expression, and/or insulin-stimulated IR signal transduction.
Results. […] Control and Herstatin-expressing MCF-7 cells were grown in complete medium prior to an overnight incubation in serum-free medium. Insulin was then added to the control and Herstatin-expressing cells and whole-cell lysates were prepared at the indicated times and processed directly for Western immunoblots with anti-insulin receptor (IR), phospho-Akt, Akt, phospho-ERK, and ERK antibodies, or first immunoprecipitated with anti-IR antibody and immunoprecipitates (IP) then analyzed by Western immunoblotting with anti-phosphotyrosine and anti-IR antibodies after transfer to nitrocellulose membranes. Following incubation of blots with primary antibodies, immunoreactive proteins were detected by enhanced chemiluminescence after a secondary incubation with HRP-conjugated secondary antisera. […]

IGF-IR = target: T2, IGF-IR (Homo sapiens, UniProt P08069); test: IGF-IR expression, Western immunoblot in MCF-7 cells; assay type: cell-based; conditions: Herstatin-expressing MCF-7 cells vs control
T2 construct: Lysates from control and Herstatin-expressing MCF-7 cells were prepared from respective untreated (no insulin) cells; endogenous in cells; host or cells: MCF-7 (control and Herstatin-expressing clones)
Protocol: as §5
(§6) Results. […] Lysates from control and Herstatin-expressing MCF-7 cells were prepared from respective untreated (no insulin) cells following overnight incubation in serum-free media, and processed directly or (in the case of the IR) also immunoprecipitated prior to Western immunoblot analysis as described in relation to FIG. 2.

P13K/Akt pathway = test: Insulin-stimulated Akt activation in MCF-7 cells; assay type: cell-based, human; conditions: Herstatin-expressing MCF-7 cells vs control
Protocol: as §5, with “After washing, the blots were incubated with secondary antibody conjugated to HRP for 30 min (BioRad, Hercules, Calif.). The membranes were developed with SuperSignal™ West Dura (Pierce, Rockford, Ill.) and exposed to x-ray film.” left out
Results. […] Insulin was then added to the control and Herstatin-expressing cells and whole-cell lysates were prepared at the indicated times and processed directly for Western immunoblots with anti-insulin receptor (IR), phospho-Akt, Akt, phospho-ERK, and ERK antibodies, or first immunoprecipitated with anti-IR antibody and immunoprecipitates (IP) then analyzed by Western immunoblotting with anti-phosphotyrosine and anti-IR antibodies after transfer to nitrocellulose membranes. Following incubation of blots with primary antibodies, immunoreactive proteins were detected by enhanced chemiluminescence after a secondary incubation with HRP-conjugated secondary antisera. […]

[3] = system: IRS-1, IRS-2, Shc, ERK1 and ERK2; test: Expression/phosphorylation state of insulin signaling proteins (IRS-1, IRS-2, Shc, ERK) in MCF-7 cells; assay type: cell-based, human; conditions: Herstatin-expressing MCF-7 cells vs control, no insulin
Protocol: as §5, §6

[4] = Herstatin-expressing MCF-7 cells vs control MCF-7

COc1cc2ncnc(Nc3cccc(Cl)c3)c2cc1OC [AS1478]
effect on insulin signaling (insulin signaling): did not affect insulin signaling | increase in insulin receptor (IR) (insulin receptor): does not Affect Insulin Signaling or Lead to an Increase in IR

COc1cccc(-c2cc(=O)c3ccccc3o2)c1N [PD-98059]
inhibition of insulin-stimulated glucose uptake (MAPK kinase (MEK)): significant inhibition

N#CC(=C(/N)Sc1ccccc1N)/C(C#N)=C(/N)Sc1ccccc1N [U-0216]
inhibition of insulin-stimulated glucose uptake (MAPK kinase (MEK)): significant inhibition

Herstatin: secreted product of an HER-2 alternative transcript; cell surface receptor isoform (intron fusion protein), polypeptides of SEQ ID NO:2
Herstatin binding to cells expressing IR (insulin receptor (IR) [1]): binds at nM concentrations | Herstatin binding to 3T3 parental cells (3T3 parental cells): but not to 3T3 parental cells | accumulation of pro-IR (insulin receptor (IR) [2]; [4]): induce the accumulation of pro-IR | up-regulation of basal IR expression (insulin receptor (IR) [2]; [4]): several-fold | IR activation by insulin (insulin receptor (IR) [2]; Herstatin-expressing MCF-7 cells, insulin added after overnight serum-free, anti-phosphotyrosine blot of IR IP): up-regulated IR activation | decrease in IGF-IR expression (IGF-IR): ~4 fold | effect on insulin-stimulated activation of the P13K/Akt pathway (P13K/Akt pathway): little effect | IRS-2 levels [3]: slight decrease | apparent serine phosphorylation of IRS-2 [3]: decrease | apparent serine phosphorylation state of IRS-1 [3]: decrease | relative expression of Shc isoforms [3]: alters the relative expression of Shc isoforms | relative expression ratio of ERK1 and ERK2 [3]: increases the relative expression ratio of ERK1 and ERK2
